The subject of one test is red blood cells. Put plainly: Flow cytometry of red blood cells derivatized in vitro with argatroban derivatives. Type of test: cell-based, human, rabbit, rat. As to conditions: RBCs from whole blood incubated with 100 μM derivative, each sample. Here is the method: (§1) Whole blood samples were treated with argatroban derivatives to yield plasma proteins and red blood cells derivatized with argatroban. Fresh citrated human, rabbit (New Zealand) and rat (Sprague Dawley) whole blood samples were incubated with 100 μM (final concentration) Argatroban-C6-NHS, Argatroban-C16-Maleimide or DMSO, for 30 minutes at room temperature under gentle agitation. After quenching the reaction with 1 mM lysine or cysteine, the whole blood was centrifuged 10 min at 2500 rpm. Labelled plasma were recovered and stored at −20° C. until use. Labelled red blood cells (RBCs) were washed three times in PBS (5 min at 2500 rpm).
After the last centrifugation, a 10% suspension of labelled red blood cells (RBCS) was made in PBS. Five μl of the suspension was mixed with rabbit anti-argatroban polyclonal sera from Example 4 diluted 1/500 in PBS-1% BSA and incubated at room temperature for 1 hour. After three washes in PBS, the RBCs were incubated with 50 μl of FITC-labeled goat anti-rabbit Ig (BioAtlantic, Nantes) diluted 1/50 in PBS-1% BSA for 1 hour in the dark. After three washes, the RBCs were resuspended in 0.5 ml PBS and fluorescence was detected by flow cytofluorometer (Becton Dickinson).

For another test, the system named is plasma proteins. Put plainly: Western blot of plasma proteins derivatized in vitro with argatroban derivatives. The settings on record: human and rat whole blood, 100 μM, 30 minutes; bands from less than 39.5 kDa to greater than 193 kDa. On the procedure:
as §1
Labeled plasma were diluted 1/10 in water. Five μl of diluted plasma (·30 μg protein) were mixed with electrophoresis buffer and separated by SDS-PAGE using an 8% polyacrylamide gel, under non-reducing conditions. Plasma proteins were then transferred onto nitrocellulose sheet with a semi-dry transfer apparatus. Efficacy of transfer was checked by reversible staining with 1% Ponceau Red. The blot was saturated with tris-buffered saline (TBS) containing 5% gelatin and 0.1% Tween 20, for 2H at 37° C. to minimize non-specific binding. After three washes with TBS-1 % Tween 20 (TBS-T), the blot was incubated with rabbit anti-argatroban polyclonal serum from diluted 1/20,000 in TBS containing 1% gelatin and 0.1% Tween 20 (TBS-GT), for 1H30 at RT. […]
For orientation: In western blotting, separated proteins are transferred to a membrane and probed.

A further test concerns rat plasma proteins. Put plainly: Western blot of plasma from rats dosed in vivo. The settings on record: intravenous, 5 minutes and 24 hours after dosing.

Structures are written as SMILES.

Procedure for rat plasma proteins: Fifteen Sprague-Dawley rats weighing 250-300 grams were randomized for treatment with either argatroban and argatroban derivative. Rats treated with argatroban received dosages of either 3 or 10 mg/kg (n=6 and respectively) administered intravenously. […] A control group of rats was treated with intravenous injection of DMSO (0.2 ml/kg, n=3). The study was divided into two groups. Plasma samples were obtained from group 1 rats at time periods of 5 min, 15 min, and 24 hrs after injection. Plasma samples were obtained from group 2 rats at 1 hr, 3 hr and 24 hr following injection. […] The collected plasma samples from these rats were frozen for subsequent evaluation of the extent of conjugation to plasma proteins using ELISA and western blot analysis.
Plasma samples obtained from the rats were diluted 1:50 in PBS and then further diluted 1:1 with 2× Laemmli non-reducing buffer (Novex). The samples were boiled for 5 min. after which 25 ul of each sample were loaded per well of 8% acrylamide SDS-PAGE precast gel (10 lanes/1 mm gel, Novex). Samples were run in replicates for staining with Coomassie blue and for transfer to nitrocellulose.
Gels were run at a constant voltage of 120 V until the dye fronts reached the bottom of gels. […]

On to `CC1CNc2c(cccc2S(=O)(=O)N[C@@H](CCCN=C(N)N)C(=O)N2CC[C@@H](C)C[C@@H]2C(=O)NCCCCCC(=O)ON2C(=O)CCC2=O)C1.Cl.Cl` (stereo partly drawn) [argatroban-NHS], for which, in the test with red blood cells, the “mean fluorescence signal relative to argatroban-maleimide derivatized cells” value is listed as 3 to 7 times. The “protein bands identified in derivatized plasma samples” value in the test with plasma proteins is listed as “Numerous protein bands”.

For the molecule `CC1CNc2c(cccc2S(=O)(=O)N[C@@H](CCCNC(=N)N)C(=O)N2CC[C@@H](C)C[C@@H]2C(=O)O)C1` (stereo partly drawn) [argatroban], the “plasma protein labelling / association with anti-argatroban antisera” value in the test with rat plasma proteins is recorded as “minimal protein association”.
